Earlier results, collected in US20210251923A1, “METHODS FOR IMPROVING NEUROLOGICAL DISEASES AND DISORDERS” (CuraSen Therapeutics, Inc., priority 2018, published 2021).

Test system: Ts65Dn mice
Conditions: increasing brain NE levels

With N[C@H](C(=O)O)[C@H](O)c1ccc(O)c(O)c1 [L-DOPS, L-threo-3,4-dihydroxyphenylserine] as the compound, how does the contextual learning read?
The contextual learning was “restored contextual learning”.
